Marks after values point to notes of the source that are not given here.
Tests used:
[1] = tested on: high-fat diet induced ApoE-/-mice atherosclerosis model (aortic atherosclerotic plaque); assay: Treatment of atherosclerosis: aortic plaque area in high-fat diet induced ApoE-/- mice, samples given for 4 weeks after 17 weeks of modeling; format: in vivo
Excerpt: (§1) Wild type C57 mice were used as a normal control group, rosuvastatin was used as a positive drug, and the efficacy (i.e., treating effect) of the composition samples in resisting atherosclerosis was investigated in a high-fat diet induced ApoE-/-mice atherosclerosis model. An atherosclerosis model was established after 17 weeks of modeling, and a control group was fed with a common feed for 17 weeks. The sample administration group was continuously administered with the test samples for 4 weeks after 17 weeks of modeling, and thereafter the formation of aortic atherosclerotic plaque in the mice was observed, and the plaque area was measured after dissection to calculate the plaque percentage.
(§2) Wild type C57 mice were used as a normal control group, rosuvastatin and atorvastatin were used as positive drugs, and the efficacy (i.e., treating effect) of the composition mixed samples in resisting atherosclerosis was investigated in a high-fat diet induced ApoE-/-mice atherosclerosis model. An atherosclerosis model was established after 17 weeks of modeling, and a control group was fed with a common feed for 17 weeks. The sample administration group was continuously administered with the test samples for 4 weeks after 17 weeks of modeling, and thereafter the formation of aortic atherosclerotic plaque in the mice was observed, and the plaque area was measured after dissection to calculate the plaque percentage.
as §2, with “aspirin, clopidogrel, colchicine” for “rosuvastatin”, “probucol” for “atorvastatin”
as §1, with “the” for “the composition”
as §1, with “mice were dissected,” for “plaque area was measured after dissection”, “area (percentage).” for “percentage.”

[2] = tested on: high-fat diet induced ApoE-/-mice atherosclerosis model (aortic atherosclerotic plaque); assay: Prevention of atherosclerosis: aortic plaque area in high-fat diet induced ApoE-/- mice, samples given during 12 weeks of modeling; format: in vivo; conditions: dose 1.67 mg/kg
Excerpt: An atherosclerosis model (namely, model group) was established after 12 weeks of modeling, and a control group (namely normal group) was fed with a common feed for 12 weeks. […] An atherosclerosis model (namely, model group) was established after 12 weeks of modeling, and a control group (namely normal group) was fed with a common feed for 12 weeks.

[3] = Table 6, treatment, drug alone 83.5 mg/kg
[4] = Table 2, treatment, 4 weeks, dose 1.67 mg/kg
[5] = Table 4, treatment, 4 weeks, dose 1.67 mg/kg
[6] = Table 5, treatment, drug alone 0.83 mg/kg
[7] = Table 5, treatment, drug alone 1.67 mg/kg
[8] = Table 7, treatment, dose 1.67 mg/kg
[9] = Table 8, treatment, dose 1.67 mg/kg
[10] = Table 9, treatment, dose 1.67 mg/kg
[11] = Table 6, treatment, drug alone 12.5 mg/kg
[12] = Table 5, treatment, drug alone 3.33 mg/kg
[13] = Table 6, treatment, drug alone 16.7 mg/kg
[14] = Table 6, treatment, drug alone 0.167 mg/kg

SMILES: CC(C)(Sc1cc(C(C)(C)C)c(O)c(C(C)(C)C)c1)Sc1cc(C(C)(C)C)c(O)c(C(C)(C)C)c1 [probucol]
- Inhibition rate compared to the model % [1, 3]: 21.91%
- Plaque area % [1, 3]: 35.25%*

SMILES: CC(C)c1nc(N(C)S(C)(=O)=O)nc(-c2ccc(F)cc2)c1/C=C/[C@@H](O)C[C@@H](O)CC(=O)O [rosuvastain, rosuvastatin]
- Inhibition rate compared to the model % ([2]; Table 1, prevention): 36.61%
- Plaque area % ([2]; Table 1, prevention): 20.93%**
- Inhibition rate compared to the model % ([2]; Table 3, prevention): 30.61%
- Plaque area % ([2]; Table 3, prevention): 24.82%
- Inhibition rate compared to the model % [1, 4]: 38.69%
- Plaque area % [1, 4]: 26.10%*
- Inhibition rate compared to the model % [1, 5]: 34.77%
- Plaque area % [1, 5]: 25.87%**
- Inhibition rate compared to the model % [1, 6]: 16.97%
- Plaque area % [1, 6]: 33.72%*
- Inhibition rate compared to the model % [1, 7]: 31.40%
- Plaque area % [1, 7]: 27.86%*
- Inhibition rate compared to the model % [1, 8]: 34.77%
- Plaque area % [1, 8]: 25.87%**
- Inhibition rate compared to the model % [1, 9]: 38.69%
- Plaque area % [1, 9]: 26.10%*
- Inhibition rate compared to the model % [1, 10]: 42.69%
- Plaque area % [1, 10]: 27.94%**

SMILES: COC(=O)[C@H](c1ccccc1Cl)N1CCc2sccc2C1 [clopidogrel]
- Inhibition rate compared to the model % [1, 11]: 32.76%
- Plaque area % [1, 11]: 30.35%*

SMILES: CC(C)c1c(C(=O)Nc2ccccc2)c(-c2ccccc2)c(-c2ccc(F)cc2)n1CC[C@@H](O)C[C@@H](O)CC(=O)O [atorvastatin]
- Inhibition rate compared to the model % [1, 7]: 18.76%
- Plaque area % [1, 7]: 32.99%*
- Inhibition rate compared to the model % [1, 12]: 28.47%
- Plaque area % [1, 12]: 29.05%*

SMILES: CC(=O)Oc1ccccc1C(=O)O [aspirin]
- Inhibition rate compared to the model % [1, 13]: 33.74%
- Plaque area % [1, 13]: 29.91%*

SMILES: COc1cc2c(c(OC)c1OC)-c1ccc(OC)c(=O)cc1[C@@H](NC(C)=O)CC2 [colchicine]
- Inhibition rate compared to the model % [1, 14]: 25.12%
- Plaque area % [1, 14]: 33.80%*
